Assay results: ChEMBL document CHEMBL5584202, “Identification of benzothiazoles as novel PCSK9 inhibitors” (Bioorg Med Chem Lett, 2024)
The source made the active and inactive calls. The calls are words filed in the database; no cut-off is given here.

What was measured:
HepG2 [1] = test: Downregulation of LDLR protein level in human HepG2 cells by Western blotting analysis; type: functional, cell-based
HepG2 [2] = test: Downregulation of PCSK9 protein level in human HepG2 cells by Western blotting analysis; type: functional, cell-based

In the case of `CC(C)(C)OC(=O)N1CCN(Cc2ccc3nc(NC(=O)c4ccc(S(=O)(=O)NCCC#N)cc4)sc3c2)CC1`, the Activity (HepG2 [1]) is reported as “Active” and the Activity (HepG2 [2]) is reported as “Active”.
